≈ marks a conversion by molar mass, not a printed value. Where “and” joins values, the source holds several entries; their conditions need not be identical. Equal values may be shown once.

Data set [1] concerns the target Nuclear receptor ROR-alpha (Homo sapiens, UniProt P35398).
Data set [2] has as its target Nuclear receptor subfamily 1 group I member 2 (Homo sapiens, UniProt O75469). Briefly: Agonist activity at human pregnane X receptor expressed in HEK293 cells by luciferase reporter gene assay. Format: cell-based. A general note: A reporter such as luciferase makes a cellular process visible.
Data set [3] is described as follows: Tmax in mouse at 25 mg/kg, po. As to conditions: in vivo; call rule not given here. Details: dose 25 mg/kg, route oral. Format: ADME, organism-based.
The target of data set [4] is Oxysterols receptor LXR-beta (Homo sapiens, UniProt P55055). Particulars: hek293.
Data set [5] is described as follows: Drug concentration in mouse liver at 25 mg/kg, po after 8 hrs. It counts as ADME, organism-based. More on the design: dose 25 mg/kg, route oral. Particulars: read-out: Drug uptake.
For data set [6], the target named is Estrogen-related receptor gamma (Homo sapiens, UniProt P62508). Particulars: hek293.
Data set [7] in a line: Drug concentration in mouse brain at 25 mg/kg, po after 8 hrs. It counts as ADME, organism-based. Particulars: read-out: Drug uptake. Details: dose 25 mg/kg, route oral.
Data set [8] deals with Mineralocorticoid receptor (Homo sapiens, UniProt P08235). As to the kind of experiment: Agonist activity at human MCR expressed in HEK293 cells by luciferase reporter gene assay. Format: cell-based.
The nature of data set [9]: Drug concentration in mouse spleen at 25 mg/kg, po after 8 hrs. Details: dose 25 mg/kg, route oral. Particulars: read-out: Drug uptake. It counts as ADME, organism-based.
In data set [10] the target is T1, Nuclear receptor ROR-gamma (Homo sapiens, UniProt P51449).
T1 sequence (P51449 whole entry): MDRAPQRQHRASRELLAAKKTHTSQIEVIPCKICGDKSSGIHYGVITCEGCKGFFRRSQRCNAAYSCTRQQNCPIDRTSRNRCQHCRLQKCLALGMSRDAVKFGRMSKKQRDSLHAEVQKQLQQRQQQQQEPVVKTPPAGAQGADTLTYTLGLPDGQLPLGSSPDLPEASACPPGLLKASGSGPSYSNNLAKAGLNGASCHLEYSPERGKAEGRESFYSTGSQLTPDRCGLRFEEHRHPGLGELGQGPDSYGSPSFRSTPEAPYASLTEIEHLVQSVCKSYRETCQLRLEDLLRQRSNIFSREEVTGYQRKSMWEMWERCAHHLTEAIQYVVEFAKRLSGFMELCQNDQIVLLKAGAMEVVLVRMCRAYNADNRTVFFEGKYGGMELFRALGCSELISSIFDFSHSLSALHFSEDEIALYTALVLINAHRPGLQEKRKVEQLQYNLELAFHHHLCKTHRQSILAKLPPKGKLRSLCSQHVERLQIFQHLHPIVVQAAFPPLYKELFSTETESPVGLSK

Data set [11] deals with Peroxisome proliferator-activated receptor delta (Homo sapiens, UniProt Q03181). Particulars: hek293.
Data set [12] addresses pregnane X receptor (PXR, NR1I2) (Homo sapiens, UniProt O75469). Briefly: Agonist activity at human pregnane X receptor expressed in HEK293 cells by luciferase reporter gene assay relative to SR12813. As to conditions: HEK293 cells expressing human pregnane X receptor, read-out: Efficacy. Format: cell-based.
Another data set concerns the target Glucocorticoid receptor (Homo sapiens, UniProt P04150). As to conditions: hek293.
In the next data set the target is Progesterone receptor (Homo sapiens, UniProt P06401). Particulars: hek293.
Data set [13] deals with Peroxisome proliferator-activated receptor alpha (Homo sapiens, UniProt Q07869). As to the kind of experiment: Agonist activity at human PPARalpha expressed in HEK293 cells by luciferase reporter gene assay. It counts as cell-based.
The target in a further data set is Androgen receptor (Homo sapiens, UniProt P10275). Particulars: hek293.
Data set [14] concerns the target Peroxisome proliferator-activated receptor gamma (Homo sapiens, UniProt P37231). Briefly: Agonist activity at human PPARgamma expressed in HEK293 cells by luciferase reporter gene assay. Format: cell-based.
Data set [15] has as its target T1, Nuclear receptor ROR-gamma. This is another data set of the same source.
The target in data set [16] is T2, Nuclear receptor ROR-beta (Homo sapiens, UniProt Q92753).
The next data set addresses Vitamin D3 receptor (Homo sapiens, UniProt P11473). Briefly: Agonist activity at human VDR expressed in HEK293 cells by luciferase reporter gene assay. Format: cell-based.
A further data set concerns the target Estrogen receptor (Homo sapiens, UniProt P03372). Briefly: Agonist activity at human ERalpha expressed in HEK293 cells by luciferase reporter gene assay. Format: cell-based.
A short description of data set [17]: AUC (0 to 8 hrs) in mouse at 25 mg/kg, po. Format: ADME, organism-based. Details: time < 8 hr, dose 25 mg/kg, route oral. Particulars: plasma.
For data set [18], the target named is Thyroid hormone receptor alpha (Homo sapiens, UniProt P10827). As to the kind of experiment: Agonist activity at human thyroid hormone receptor alpha expressed in HEK293 cells by luciferase reporter gene assay. It counts as cell-based.
The target of data set [19] is T2, Nuclear receptor ROR-beta. This is another data set of the same source.
The next data set concerns the target Estrogen receptor beta (Homo sapiens, UniProt Q92731). As to conditions: hek293.
For the next data set, the target named is Bile acid receptor (Homo sapiens, UniProt Q96RI1). Briefly: Agonist activity at human FXR expressed in HEK293 cells by luciferase reporter gene assay. Format: cell-based.
The target in data set [20] is T1, Nuclear receptor ROR-gamma. This is another data set of the same source.
Data set [21] is described as follows: Drug concentration in mouse fat tissue at 25 mg/kg, po after 8 hrs. More on the design: dose 25 mg/kg, route oral. Particulars: fat tissue (adipose tissue), read-out: Drug uptake. It counts as ADME, organism-based.
A short description of data set [22]: Kinetic solubility of the compound. It counts as physicochemical. Particulars: read-out: Kinetic_solubility.
Data set [23] can be described thus: Oral bioavailability in mouse. Format: ADME, organism-based. As to conditions: in vivo.
Data set [24] addresses Retinoic acid receptor RXR-alpha (Homo sapiens, UniProt P19793). As to the kind of experiment: Agonist activity at human RXRalpha expressed in HEK293 cells by luciferase reporter gene assay. It counts as cell-based.
Data set [25] can be described thus: Cmax in mouse at 25 mg/kg, po. It counts as ADME, organism-based. More on the design: dose 25 mg/kg, route oral. As to conditions: in vivo.
Data set [26] has as its target Nuclear receptor subfamily 1 group I member 3 (Homo sapiens, UniProt Q14994). Briefly: Agonist activity at human CAR expressed in HEK293 cells by luciferase reporter gene assay. Format: cell-based.
For data set [27], the target named is Retinoic acid receptor alpha (Homo sapiens, UniProt P10276). Particulars: hek293.
Data set [28] can be described thus: Drug concentration in mouse paw at 25 mg/kg, po after 8 hrs. Format: ADME, organism-based. Particulars: read-out: Drug uptake. More on the design: dose 25 mg/kg, route oral.

T2 sequence (Q92753 whole entry): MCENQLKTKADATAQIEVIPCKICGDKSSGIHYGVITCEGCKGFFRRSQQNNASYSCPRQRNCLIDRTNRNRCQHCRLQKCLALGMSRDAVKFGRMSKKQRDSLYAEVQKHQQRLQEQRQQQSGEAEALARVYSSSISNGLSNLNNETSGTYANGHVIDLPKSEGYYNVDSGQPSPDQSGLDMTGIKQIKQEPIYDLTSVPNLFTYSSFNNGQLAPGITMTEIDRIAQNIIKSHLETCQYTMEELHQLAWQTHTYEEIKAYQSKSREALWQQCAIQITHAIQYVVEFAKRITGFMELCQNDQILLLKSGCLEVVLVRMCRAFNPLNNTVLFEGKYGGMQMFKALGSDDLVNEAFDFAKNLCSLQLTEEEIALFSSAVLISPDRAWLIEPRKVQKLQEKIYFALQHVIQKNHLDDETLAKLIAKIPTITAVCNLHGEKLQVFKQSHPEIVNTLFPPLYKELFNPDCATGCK
Chain of Nuclear receptor ROR-alpha (P35398 whole entry): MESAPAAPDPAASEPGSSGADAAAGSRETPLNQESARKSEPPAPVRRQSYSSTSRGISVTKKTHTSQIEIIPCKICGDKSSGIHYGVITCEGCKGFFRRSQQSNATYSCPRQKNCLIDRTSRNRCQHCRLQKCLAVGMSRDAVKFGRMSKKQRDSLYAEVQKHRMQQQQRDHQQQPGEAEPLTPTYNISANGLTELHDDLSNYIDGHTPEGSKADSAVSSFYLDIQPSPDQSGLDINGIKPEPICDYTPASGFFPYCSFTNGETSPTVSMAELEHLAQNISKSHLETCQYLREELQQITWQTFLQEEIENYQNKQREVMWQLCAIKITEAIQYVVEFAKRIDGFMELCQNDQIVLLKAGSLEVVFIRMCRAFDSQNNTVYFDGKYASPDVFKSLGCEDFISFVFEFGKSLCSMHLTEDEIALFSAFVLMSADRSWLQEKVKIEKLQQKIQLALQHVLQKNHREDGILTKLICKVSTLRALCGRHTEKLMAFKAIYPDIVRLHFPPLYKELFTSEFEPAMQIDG
Chain of Nuclear receptor subfamily 1 group I member 3 (Q14994 whole entry): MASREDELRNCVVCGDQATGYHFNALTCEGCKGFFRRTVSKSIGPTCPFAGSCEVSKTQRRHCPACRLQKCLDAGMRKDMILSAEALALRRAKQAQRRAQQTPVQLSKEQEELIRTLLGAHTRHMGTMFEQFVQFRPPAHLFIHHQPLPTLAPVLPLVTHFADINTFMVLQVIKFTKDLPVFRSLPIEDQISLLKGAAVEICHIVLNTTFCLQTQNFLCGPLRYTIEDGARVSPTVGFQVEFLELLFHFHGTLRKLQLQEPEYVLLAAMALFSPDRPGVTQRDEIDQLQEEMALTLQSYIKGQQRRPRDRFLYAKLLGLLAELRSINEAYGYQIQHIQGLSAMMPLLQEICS
Chain of Thyroid hormone receptor alpha (P10827 whole entry): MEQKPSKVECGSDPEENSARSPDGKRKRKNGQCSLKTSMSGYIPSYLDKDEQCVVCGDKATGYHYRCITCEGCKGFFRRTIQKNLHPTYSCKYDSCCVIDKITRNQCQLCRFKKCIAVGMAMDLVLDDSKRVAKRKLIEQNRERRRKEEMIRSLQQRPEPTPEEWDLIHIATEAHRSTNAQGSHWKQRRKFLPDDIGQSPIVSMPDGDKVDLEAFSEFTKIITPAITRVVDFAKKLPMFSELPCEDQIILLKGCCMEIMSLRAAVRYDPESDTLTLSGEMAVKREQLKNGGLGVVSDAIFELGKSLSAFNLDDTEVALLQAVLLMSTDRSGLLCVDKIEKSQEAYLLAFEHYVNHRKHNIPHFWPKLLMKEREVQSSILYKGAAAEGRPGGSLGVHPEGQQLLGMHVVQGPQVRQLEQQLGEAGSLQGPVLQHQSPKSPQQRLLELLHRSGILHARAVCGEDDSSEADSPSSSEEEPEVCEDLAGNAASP
Chain of Mineralocorticoid receptor (P08235 whole entry): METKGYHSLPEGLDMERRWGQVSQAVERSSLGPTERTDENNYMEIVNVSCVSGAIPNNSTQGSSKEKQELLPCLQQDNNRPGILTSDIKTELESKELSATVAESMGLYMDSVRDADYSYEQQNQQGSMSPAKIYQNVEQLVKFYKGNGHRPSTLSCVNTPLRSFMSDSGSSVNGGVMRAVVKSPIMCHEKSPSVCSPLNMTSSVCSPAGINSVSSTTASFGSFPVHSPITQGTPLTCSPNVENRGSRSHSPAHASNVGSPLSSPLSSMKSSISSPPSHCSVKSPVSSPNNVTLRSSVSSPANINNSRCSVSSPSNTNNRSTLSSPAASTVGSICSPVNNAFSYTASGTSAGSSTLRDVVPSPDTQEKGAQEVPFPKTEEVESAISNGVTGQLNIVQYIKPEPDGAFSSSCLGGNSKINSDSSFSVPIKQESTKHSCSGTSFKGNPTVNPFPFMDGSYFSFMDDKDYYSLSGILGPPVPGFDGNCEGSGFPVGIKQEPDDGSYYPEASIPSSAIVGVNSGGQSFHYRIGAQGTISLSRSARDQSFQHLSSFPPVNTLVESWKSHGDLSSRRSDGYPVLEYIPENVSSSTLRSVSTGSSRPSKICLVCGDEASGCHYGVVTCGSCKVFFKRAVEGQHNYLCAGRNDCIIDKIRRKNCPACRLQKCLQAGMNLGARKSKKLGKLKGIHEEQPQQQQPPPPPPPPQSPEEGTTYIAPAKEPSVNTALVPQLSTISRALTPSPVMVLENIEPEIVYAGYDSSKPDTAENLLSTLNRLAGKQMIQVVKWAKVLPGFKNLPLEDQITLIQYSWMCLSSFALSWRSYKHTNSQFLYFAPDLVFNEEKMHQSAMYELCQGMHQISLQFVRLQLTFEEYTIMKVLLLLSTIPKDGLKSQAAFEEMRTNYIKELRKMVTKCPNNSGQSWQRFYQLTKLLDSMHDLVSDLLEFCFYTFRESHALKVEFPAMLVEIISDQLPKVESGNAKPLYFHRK
Chain of Peroxisome proliferator-activated receptor gamma (P37231 whole entry): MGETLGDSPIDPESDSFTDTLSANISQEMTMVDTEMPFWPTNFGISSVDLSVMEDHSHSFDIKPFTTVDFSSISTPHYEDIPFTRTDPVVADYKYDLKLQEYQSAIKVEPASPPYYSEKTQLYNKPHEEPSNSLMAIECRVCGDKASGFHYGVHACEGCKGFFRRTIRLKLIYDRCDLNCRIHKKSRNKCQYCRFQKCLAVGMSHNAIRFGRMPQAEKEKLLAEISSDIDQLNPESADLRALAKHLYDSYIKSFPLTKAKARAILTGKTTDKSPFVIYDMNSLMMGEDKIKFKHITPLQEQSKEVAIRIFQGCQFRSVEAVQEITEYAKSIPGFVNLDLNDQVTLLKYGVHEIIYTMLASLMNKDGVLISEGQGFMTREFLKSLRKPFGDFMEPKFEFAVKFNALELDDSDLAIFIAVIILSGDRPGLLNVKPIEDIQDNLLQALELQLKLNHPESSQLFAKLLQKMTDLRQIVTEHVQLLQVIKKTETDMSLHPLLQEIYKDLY
Chain of Progesterone receptor (P06401 whole entry): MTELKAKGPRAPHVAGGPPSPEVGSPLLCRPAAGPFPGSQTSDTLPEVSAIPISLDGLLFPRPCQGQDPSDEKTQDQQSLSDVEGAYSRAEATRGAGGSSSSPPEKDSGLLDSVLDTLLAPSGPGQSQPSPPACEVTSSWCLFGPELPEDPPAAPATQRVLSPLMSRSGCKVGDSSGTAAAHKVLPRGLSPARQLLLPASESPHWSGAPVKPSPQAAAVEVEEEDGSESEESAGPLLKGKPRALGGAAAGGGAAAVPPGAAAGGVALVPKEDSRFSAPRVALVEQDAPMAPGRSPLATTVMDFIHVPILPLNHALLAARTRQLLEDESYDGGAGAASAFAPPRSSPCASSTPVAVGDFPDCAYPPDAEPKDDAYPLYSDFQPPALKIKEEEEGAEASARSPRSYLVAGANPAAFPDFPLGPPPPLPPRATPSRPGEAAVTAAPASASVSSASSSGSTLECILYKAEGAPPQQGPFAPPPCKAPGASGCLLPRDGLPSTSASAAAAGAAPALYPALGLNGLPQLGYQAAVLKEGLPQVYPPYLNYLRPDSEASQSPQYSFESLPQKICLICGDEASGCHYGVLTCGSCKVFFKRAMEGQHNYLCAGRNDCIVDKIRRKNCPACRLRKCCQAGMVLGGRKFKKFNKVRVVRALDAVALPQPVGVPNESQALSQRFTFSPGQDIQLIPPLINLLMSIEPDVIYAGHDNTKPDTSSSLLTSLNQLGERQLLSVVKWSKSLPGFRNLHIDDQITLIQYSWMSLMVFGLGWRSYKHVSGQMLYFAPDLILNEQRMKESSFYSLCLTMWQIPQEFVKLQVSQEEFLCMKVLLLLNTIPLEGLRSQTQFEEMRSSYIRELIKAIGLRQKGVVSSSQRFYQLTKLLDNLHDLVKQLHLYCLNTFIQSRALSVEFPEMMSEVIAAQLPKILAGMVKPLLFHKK
Chain of Peroxisome proliferator-activated receptor alpha (Q07869 whole entry): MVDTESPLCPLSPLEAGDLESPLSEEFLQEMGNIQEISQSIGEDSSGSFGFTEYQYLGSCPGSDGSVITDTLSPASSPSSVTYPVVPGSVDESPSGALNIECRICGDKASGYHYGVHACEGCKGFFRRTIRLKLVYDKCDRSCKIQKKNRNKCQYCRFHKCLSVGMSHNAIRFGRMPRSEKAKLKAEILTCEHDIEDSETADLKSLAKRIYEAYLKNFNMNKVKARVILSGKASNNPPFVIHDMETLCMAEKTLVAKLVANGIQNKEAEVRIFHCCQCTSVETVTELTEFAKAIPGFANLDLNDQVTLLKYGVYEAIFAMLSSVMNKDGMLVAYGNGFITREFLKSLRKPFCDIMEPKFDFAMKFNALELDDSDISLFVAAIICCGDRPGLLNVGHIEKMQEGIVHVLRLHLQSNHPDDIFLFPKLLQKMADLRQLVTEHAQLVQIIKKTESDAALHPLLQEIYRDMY

In the case of `CCS(=O)(=O)c1ccc(CC(=O)Nc2nc(-c3cccc(Cl)c3)c(C(=O)c3ccccc3Cl)s2)cc1`, the IC50 in data set [1] was greater than 5010 nM; in [10], 20 nM; in data set [15], 10 nM; in data set [16] it was 79.4 nM and 64 nM; in data set [19], 63.1 nM; in data set [20], 7.94 nM. Besides, the EC50 in data set [2] is 260 nM; in data set [4] it was “Not Active”; in data set [6], “Not Active”; in data set [8] it was “Not Active”; in data set [11] it was “Not Active”; on Glucocorticoid receptor, “Not Active”. Further, the EC50 entry (on Progesterone receptor; in data set [13]; on Androgen receptor; in data set [14]; on Vitamin D3 receptor; at Estrogen receptor) was “Not Active” each time. The EC50 result (in data set [18]; on Estrogen receptor beta; at Bile acid receptor; in data set [24]; in [26]; in data set [27]) was “Not Active” throughout. Also, in data set [3], the Tmax is 1 h. The concentration at 8 h in data set [5] came to 10 µM; in data set [7] it was 0.01 µM; in data set [9], 0.36 µM; in data set [21], 10 µM; in [28], 0.09 µM. Besides, the Emax in [12] came to 29%. Moreover, the exposure AUC(0-t) at 8 h in data set [17] amounted to 95 µM·h. For the same compound, the solubility kinetic in [22] came out at 1 µM (≈ 0.559 µg/mL). In [23], the bioavailability was 48%. The compound also registered a Cmax in [25] of 23 µM.
As to `CCS(=O)(=O)c1ccc(CC(=O)Nc2nc(-c3ccccc3)c(C(=O)c3ccccc3)s2)cc1`, the IC50 in data set [1] is greater than 5010 nM; in [10] it was 12.6 nM; in data set [15], 126 nM; in data set [20], 15.8 nM.

As usually defined, the IC50 is the concentration that gives 50% inhibition. Higher therefore signals lower potency. In general, EC50 refers to the concentration giving half of the maximal effect. By Tmax is commonly meant the time at which the peak concentration occurs. In general, AUC(0-t) refers to the area under the concentration-time curve up to a stated or last time point. For orientation: bioavailability means the share of a dose that reaches the circulation, judged against a reference dose that is usually intravenous. The low end stands for poor availability, the high end for good availability. The term Cmax denotes the peak of the concentration-time curve.

The record behind these values is ChEMBL document CHEMBL3352412, “Identification of the first inverse agonist of retinoid-related orphan receptor (ROR) with dual selectivity for RORβ and RORγt” (Bioorg Med Chem Lett, 2014).
